Data: the CheMixHub drug solubility set

Assay: xn = mol fraction of the nth substance listed, in the solute-free solvent

OCCN(CCO)c1nc(N2CCCCC2)c2nc(N(CCO)CCO)nc(N3CCCCC3)c2n1 + CC(C)O + O
solubility (g/100 g solution)
Details | 293.15 K | 298.15 K | 303.15 K | 308.15 K | 313.15 K | 318.15 K | 323.15 K | 328.15 K
x2 = 0.3 | 4.66 | 6.62 | 8.49 | 11.6 | 14.9 | 19.9 | 27.3 | 32.8
x2 = 0.4 | 7.42 | 9.61 | 12.4 | 15.3 | 20.2 | 25.6 | 32.3 | 39.9
x2 = 0.5 | 8.69 | 11.8 | 14.9 | 18.1 | 21.7 | 27.7 | 33.4 | 39.5
x2 = 0.6 | 9.25 | 11.6 | 14.6 | 18 | 20.8 | 26.6 | 31.7 | 37.5
x2 = 0.7 | 8.37 | 9.97 | 12.7 | 15.8 | 19.1 | 23.7 | 28.6 | 33.6
x2 = 0.8 | 6.58 | 8.26 | 10.4 | 13.2 | 15.7 | 20 | 24 | 29
x2 = 0.9 | 4.8 | 6.08 | 7.64 | 9.93 | 11.6 | 15.1 | 18.8 | 23.2

CCC(C)n1ncn(-c2ccc(N3CCN(c4ccc(OCC5COC(Cn6cncn6)(c6ccc(Cl)cc6Cl)O5)cc4)CC3)cc2)c1=O (centres undefined) + ClCCl + CCCCO
solubility (g/100 g solution)
Details | x2 = 0.08928 | x2 = 0.1807 | x2 = 0.2744 | x2 = 0.3704 | x2 = 0.4687 | x2 = 0.5696 | x2 = 0.6731 | x2 = 0.7792 | x2 = 0.8882
288.15 K | 0.0509 | 0.143 | 0.594 | 1.83 | 4.18 | 9.32 | 14.8 | 19.8 | 22
293.15 K | 0.0634 | 0.189 | 0.775 | 2.27 | 5.04 | 10.4 | 16 | 20.9 | 23.1
298.15 K | 0.078 | 0.249 | 1 | 2.81 | 5.97 | 11.6 | 17 | 22.1 | 24.2
303.15 K | 0.0948 | 0.323 | 1.28 | 3.4 | 7.13 | 12.8 | 18.2 | 23.1 | 25.3
308.15 K | 0.115 | 0.412 | 1.64 | 4.11 | 8.37 | 14 | 19.3 | 24.2 | 26.4

CN1CCN(C2=Nc3cc(Cl)ccc3Nc3ccccc32)CC1 + ClC(Cl)Cl + Cc1ccccc1
solubility (g/100 g solution)
Details | x2 = 0.07983 | x2 = 0.1632 | x2 = 0.2513 | x2 = 0.3428 | x2 = 0.4382 | x2 = 0.5396 | x2 = 0.6452 | x2 = 0.7576 | x2 = 0.8755
293.15 K | 2.67 | 2.81 | 3.33 | 3.96 | 4.41 | 5.51 | 6.99 | 8.93 | 11.8
298.15 K | 3.12 | 3.3 | 3.67 | 4.31 | 4.65 | 6.29 | 7.75 | 10.1 | 12.8
303.15 K | 3.39 | 3.85 | 4.08 | 4.65 | 5.25 | 6.98 | 8.51 | 10.9 | 13.3
308.15 K | 3.94 | 4.46 | 4.87 | 5.59 | 6.7 | 7.99 | 9.81 | 12.6 | 14.4
313.15 K | 4.95 | 5.37 | 6 | 6.97 | 7.69 | 9.1 | 11.1 | 13.9 | 16.5
318.15 K | 5.94 | 6.56 | 6.71 | 8.12 | 9.11 | 10.3 | 12.3 | 16.2 | 19.1
323.15 K | 6.09 | 7.9 | 9.16 | 10 | 10.9 | 12.6 | 15.7 | 19.2 | 22.4

Cl.N=C(N)N + CN(C)C=O + CCCO
solubility (g/100 g solution)
Details | 278.15 K | 283.15 K | 288.15 K | 293.15 K | 298.15 K | 303.15 K | 308.15 K | 313.15 K | 318.15 K | 323.15 K
x2 = 0.08378 | 10.4 | 11.5 | 12.6 | 13.4 | 14.4 | 15.6 | 16.5 | 17.8 | 18.9 | 20.5
x2 = 0.2607 | 20.4 | 21.6 | 22.3 | 23 | 23.9 | 24.8 | 25.6 | 26.3 | 27.2 | 28.1
x2 = 0.4515 | 27.6 | 28.9 | 29.7 | 30.7 | 31.8 | 32.8 | 33.4 | 34.5 | 35.3 | 36.7
x2 = 0.657 | 35.6 | 37.3 | 38.3 | 39.1 | 40.5 | 41.6 | 42.5 | 43.5 | 44.9 | 46.1
x2 = 0.8809 | 43.5 | 45.6 | 46.6 | 47.1 | 48.8 | 49.9 | 50.7 | 52.4 | 53.7 | 54
